In patent US20250197377A1, “NOVEL PHARMACEUTICAL SALTS AND POLYMORPHIC FORMS OF AN ERBB AND BTK INHIBITOR” (DIZAL (JIANGSU) PHARMACEUTICAL CO., LTD., priority 2021, published 2025):
Values after ≈ are worked out from the molar mass of the structure shown. Values joined by “and” are separate entries in the source; they are usually repeats but may differ in a detail not shown here. Equal values may be shown once. Read-outs that look alike come from different tables or passages of the source.

How the values were obtained:
[1] = Dynamic moisture sorption analysis (DVS); type: physicochemical
Experimental: DVS was determined using DVS Advantage-1 or Intrinsic (SMS, UK). The sample was tested at a targeted RH of 10 to 90% full cycle in step mode. The analysis was performed in 10% RH increments. Equilibrium:60 min RH (%) measurement points: First cycle: 0, 10, 20, 30, 40, 50, 60, 70, 80, 90. Second cycle: 90, 80, 70, 60, 50, 40, 30, 20, 10, 0.

EGFR Wildtype = target: T1, EGFR Wildtype (Homo sapiens, UniProt P00533); assay: In vitro cell based assay, PD IC50, A431
T1 construct: Form A and B in vitro cell based assay; endogenous in cells; host or cells: A431

[2] = Solubility in bio-relevant media; type: physicochemical
PC-9 = assay: In vitro cell based assay, anti-proliferation GI50, PC-9; conditions: Homo sapiens, PC-9, EGFR 19Del
[3] = Solubility in organic solvents and water; type: physicochemical; conditions: r.t.
[4] = PK study of Form A and Form B in Rat; type: in vivo; conditions: rat, in vivo; for AUC(0-t): read-out: Mean AUC0~48; for half-life: read-out: Mean t1/2 (converted); for Tmax: read-out: Median Tmax
A431 = assay: In vitro cell based assay, anti-proliferation GI50, A431; conditions: Homo sapiens, A-431, EGFR Wildtype
EGFR 19Del = target: T2, EGFR 19Del (Homo sapiens, UniProt P00533, DEL746-750); assay: In vitro cell based assay, PD IC50, PC-9
T2 construct: Form A and B in vitro cell based assay; endogenous in cells; host or cells: PC-9

NCI-H1975 = assay: In vitro cell based assay, anti-proliferation GI50, NCI-H1975; conditions: Homo sapiens, NCI-H1975, EGFR L858R/T790M
3T3_YVMA = assay: In vitro cell based assay, anti-proliferation GI50, 3T3_YVMA; conditions: HER2 A775_G776insYVMA
[5] = Form A and Form B inter-conversion study (competitive slurry, XRPD); type: physicochemical
Experimental: Competitive slurry experiments were conducted to evaluate the relative stability of Form A and Form B. Inter-conversion study was performed at room temperature and 50° C. using single and binary solvents listed in the Table 1 below. About 80 mg (100 mg for 50° C.) of Form A and Form B (1:1, w/w) was weighed into sample vials (8 mL) and then 3 mL (2 mL for 50° C.) of solvents were added to each vial. The obtained suspensions were kept stirring for 7 days at room temperature and 50° C., then filtered at specified time. The wet and dried solids were analyzed by XRPD (dried in vacuum oven at 45° C.).
Form B was dominant in tested solvent systems with water activity below 0.15 at room temperature (24˜27° C.). […] Pure Form A and Form B were stable during drying process (50° C., vacuum) for at least 2 days.

EGFR L858R/T790M = target: T3, EGFR L858R/T790M (Homo sapiens, UniProt P00533, L858R/T790M); assay: In vitro cell based assay, PD IC50, NCI-H1975
T3 construct: Form A and B in vitro cell based assay; endogenous in cells; host or cells: NCI-H1975

[6] = Water activity study of Form A and Form B (slurry, XRPD); type: physicochemical; conditions: 24~27° C. (before dry)
Experimental: To study the effects of water on the stability of Form A and Form B, slurry experiments in the systems with different water activity were carried out. Form A or Form B was suspended separately in different water activity systems (Table 4). […] Residual solids were filtered and then dried in the vacuum oven at 45° C. for 8-24 hours. Dry solids were characterized by XRPD.

HER2 A775_G776insYVMA = target: T4, HER2 A775_G776insYVMA (Homo sapiens, UniProt P04626, INS775YVMA); assay: In vitro cell based assay, PD IC50, 3T3_YVMA
T4 construct: expressed in transfected cells; host or cells: 3T3 (3T3_YVMA)

EGFR H773_V774insNPH = target: T5, EGFR H773_V774insNPH (Homo sapiens, UniProt P00533, INS773NPH); assay: In vitro cell based assay, PD IC50, Ba/F3_NPH
T5 construct: expressed in transfected cells; host or cells: Ba/F3 (Ba/F3_NPH)

Ba/F3_NPH = assay: In vitro cell based assay, anti-proliferation GI50, Ba/F3_NPH; conditions: EGFR H773_V774insNPH
[7] = PK study of Form A and Form B in Dog; type: in vivo; conditions: 10 mg/kg

T4 sequence (P04626 with tags, fused parts or gaps INS775YVMA): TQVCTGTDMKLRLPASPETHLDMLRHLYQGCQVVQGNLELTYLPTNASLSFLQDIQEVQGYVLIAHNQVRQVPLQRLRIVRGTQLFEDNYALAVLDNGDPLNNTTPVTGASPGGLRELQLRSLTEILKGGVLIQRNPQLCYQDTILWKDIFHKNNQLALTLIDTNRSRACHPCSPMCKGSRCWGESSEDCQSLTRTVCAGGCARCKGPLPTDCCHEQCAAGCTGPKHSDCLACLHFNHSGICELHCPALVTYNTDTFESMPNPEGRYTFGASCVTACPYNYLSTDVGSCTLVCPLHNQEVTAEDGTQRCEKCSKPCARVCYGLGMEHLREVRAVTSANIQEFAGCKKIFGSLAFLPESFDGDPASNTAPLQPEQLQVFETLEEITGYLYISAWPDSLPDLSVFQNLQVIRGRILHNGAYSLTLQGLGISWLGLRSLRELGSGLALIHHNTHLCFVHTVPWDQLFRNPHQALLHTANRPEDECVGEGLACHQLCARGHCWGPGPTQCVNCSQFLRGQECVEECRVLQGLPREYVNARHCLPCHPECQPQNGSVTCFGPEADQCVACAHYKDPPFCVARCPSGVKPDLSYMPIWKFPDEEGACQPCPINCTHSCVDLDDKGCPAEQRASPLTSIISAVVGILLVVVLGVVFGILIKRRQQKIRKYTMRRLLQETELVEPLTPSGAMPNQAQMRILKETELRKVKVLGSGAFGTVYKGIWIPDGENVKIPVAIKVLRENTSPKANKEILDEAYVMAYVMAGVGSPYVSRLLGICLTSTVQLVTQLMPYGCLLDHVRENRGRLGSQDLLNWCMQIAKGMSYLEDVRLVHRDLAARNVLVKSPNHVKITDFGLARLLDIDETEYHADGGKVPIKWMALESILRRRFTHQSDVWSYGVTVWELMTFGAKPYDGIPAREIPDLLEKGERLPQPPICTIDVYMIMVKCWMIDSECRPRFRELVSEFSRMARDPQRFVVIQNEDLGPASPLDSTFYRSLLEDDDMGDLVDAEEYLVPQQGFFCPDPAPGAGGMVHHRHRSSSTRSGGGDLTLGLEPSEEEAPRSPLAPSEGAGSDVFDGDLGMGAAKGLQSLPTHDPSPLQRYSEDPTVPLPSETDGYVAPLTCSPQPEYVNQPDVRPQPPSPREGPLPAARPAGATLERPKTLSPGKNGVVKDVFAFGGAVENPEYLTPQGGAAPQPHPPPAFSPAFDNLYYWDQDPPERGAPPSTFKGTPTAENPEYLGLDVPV
T3 sequence (P00533 25-1210 T790M/L858R): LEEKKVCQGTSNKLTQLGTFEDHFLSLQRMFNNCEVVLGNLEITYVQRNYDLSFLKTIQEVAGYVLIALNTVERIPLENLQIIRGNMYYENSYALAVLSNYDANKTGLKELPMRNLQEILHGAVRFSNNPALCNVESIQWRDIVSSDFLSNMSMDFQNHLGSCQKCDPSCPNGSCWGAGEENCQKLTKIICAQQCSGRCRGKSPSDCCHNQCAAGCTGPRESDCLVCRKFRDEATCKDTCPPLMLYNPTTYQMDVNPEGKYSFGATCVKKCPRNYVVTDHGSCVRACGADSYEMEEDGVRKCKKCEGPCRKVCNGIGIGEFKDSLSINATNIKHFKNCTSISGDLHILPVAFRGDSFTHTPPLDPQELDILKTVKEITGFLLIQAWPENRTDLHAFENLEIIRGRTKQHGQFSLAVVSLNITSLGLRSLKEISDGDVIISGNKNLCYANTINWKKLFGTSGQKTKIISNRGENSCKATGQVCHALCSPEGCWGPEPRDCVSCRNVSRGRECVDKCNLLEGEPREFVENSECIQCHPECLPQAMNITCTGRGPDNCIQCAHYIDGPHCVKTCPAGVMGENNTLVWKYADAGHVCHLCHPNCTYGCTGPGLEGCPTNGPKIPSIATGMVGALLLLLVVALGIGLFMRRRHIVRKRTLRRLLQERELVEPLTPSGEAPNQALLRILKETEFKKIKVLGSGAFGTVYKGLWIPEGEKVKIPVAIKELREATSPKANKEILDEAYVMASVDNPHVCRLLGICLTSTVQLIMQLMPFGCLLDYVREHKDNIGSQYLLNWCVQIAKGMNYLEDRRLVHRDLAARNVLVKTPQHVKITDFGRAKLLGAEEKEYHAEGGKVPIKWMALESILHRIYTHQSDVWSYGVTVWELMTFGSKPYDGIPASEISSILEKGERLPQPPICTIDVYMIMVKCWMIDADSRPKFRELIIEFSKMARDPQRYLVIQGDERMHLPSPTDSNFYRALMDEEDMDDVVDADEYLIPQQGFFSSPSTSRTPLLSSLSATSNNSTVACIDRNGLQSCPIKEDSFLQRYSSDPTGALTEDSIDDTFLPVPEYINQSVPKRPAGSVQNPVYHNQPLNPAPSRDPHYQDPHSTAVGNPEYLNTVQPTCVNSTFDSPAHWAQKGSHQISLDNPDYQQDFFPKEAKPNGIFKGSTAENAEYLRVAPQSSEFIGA
T1 sequence (P00533 25-1210): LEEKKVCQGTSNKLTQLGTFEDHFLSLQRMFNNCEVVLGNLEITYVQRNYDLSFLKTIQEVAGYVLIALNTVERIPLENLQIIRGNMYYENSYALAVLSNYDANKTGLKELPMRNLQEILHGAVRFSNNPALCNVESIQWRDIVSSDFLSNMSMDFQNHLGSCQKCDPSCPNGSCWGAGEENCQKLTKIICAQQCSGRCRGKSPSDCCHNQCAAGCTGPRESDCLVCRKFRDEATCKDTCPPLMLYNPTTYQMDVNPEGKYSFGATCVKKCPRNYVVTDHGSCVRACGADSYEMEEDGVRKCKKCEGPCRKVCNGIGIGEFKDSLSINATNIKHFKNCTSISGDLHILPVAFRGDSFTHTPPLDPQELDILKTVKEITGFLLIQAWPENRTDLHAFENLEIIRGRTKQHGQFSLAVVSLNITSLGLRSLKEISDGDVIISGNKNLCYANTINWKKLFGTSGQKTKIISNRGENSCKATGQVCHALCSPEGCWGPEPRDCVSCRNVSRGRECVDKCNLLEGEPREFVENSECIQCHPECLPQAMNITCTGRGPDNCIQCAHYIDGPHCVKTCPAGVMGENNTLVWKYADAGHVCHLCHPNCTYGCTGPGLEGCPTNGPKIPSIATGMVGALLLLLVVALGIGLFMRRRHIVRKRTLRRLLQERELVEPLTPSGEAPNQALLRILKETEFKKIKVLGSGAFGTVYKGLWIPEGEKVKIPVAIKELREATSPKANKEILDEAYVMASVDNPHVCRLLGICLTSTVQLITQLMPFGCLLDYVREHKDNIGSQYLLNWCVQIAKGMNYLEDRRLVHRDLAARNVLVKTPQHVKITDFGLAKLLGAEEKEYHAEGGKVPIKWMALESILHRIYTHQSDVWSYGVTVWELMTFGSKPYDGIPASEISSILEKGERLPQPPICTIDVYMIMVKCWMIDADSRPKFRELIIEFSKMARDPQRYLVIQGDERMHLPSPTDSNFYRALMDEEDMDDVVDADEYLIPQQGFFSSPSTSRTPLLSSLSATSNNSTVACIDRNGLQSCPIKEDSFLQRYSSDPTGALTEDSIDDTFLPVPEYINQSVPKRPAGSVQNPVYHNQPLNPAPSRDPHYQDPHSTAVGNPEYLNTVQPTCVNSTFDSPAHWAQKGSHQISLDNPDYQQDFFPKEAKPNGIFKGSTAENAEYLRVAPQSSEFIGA
T5 sequence (P00533 with tags, fused parts or gaps INS773NPH): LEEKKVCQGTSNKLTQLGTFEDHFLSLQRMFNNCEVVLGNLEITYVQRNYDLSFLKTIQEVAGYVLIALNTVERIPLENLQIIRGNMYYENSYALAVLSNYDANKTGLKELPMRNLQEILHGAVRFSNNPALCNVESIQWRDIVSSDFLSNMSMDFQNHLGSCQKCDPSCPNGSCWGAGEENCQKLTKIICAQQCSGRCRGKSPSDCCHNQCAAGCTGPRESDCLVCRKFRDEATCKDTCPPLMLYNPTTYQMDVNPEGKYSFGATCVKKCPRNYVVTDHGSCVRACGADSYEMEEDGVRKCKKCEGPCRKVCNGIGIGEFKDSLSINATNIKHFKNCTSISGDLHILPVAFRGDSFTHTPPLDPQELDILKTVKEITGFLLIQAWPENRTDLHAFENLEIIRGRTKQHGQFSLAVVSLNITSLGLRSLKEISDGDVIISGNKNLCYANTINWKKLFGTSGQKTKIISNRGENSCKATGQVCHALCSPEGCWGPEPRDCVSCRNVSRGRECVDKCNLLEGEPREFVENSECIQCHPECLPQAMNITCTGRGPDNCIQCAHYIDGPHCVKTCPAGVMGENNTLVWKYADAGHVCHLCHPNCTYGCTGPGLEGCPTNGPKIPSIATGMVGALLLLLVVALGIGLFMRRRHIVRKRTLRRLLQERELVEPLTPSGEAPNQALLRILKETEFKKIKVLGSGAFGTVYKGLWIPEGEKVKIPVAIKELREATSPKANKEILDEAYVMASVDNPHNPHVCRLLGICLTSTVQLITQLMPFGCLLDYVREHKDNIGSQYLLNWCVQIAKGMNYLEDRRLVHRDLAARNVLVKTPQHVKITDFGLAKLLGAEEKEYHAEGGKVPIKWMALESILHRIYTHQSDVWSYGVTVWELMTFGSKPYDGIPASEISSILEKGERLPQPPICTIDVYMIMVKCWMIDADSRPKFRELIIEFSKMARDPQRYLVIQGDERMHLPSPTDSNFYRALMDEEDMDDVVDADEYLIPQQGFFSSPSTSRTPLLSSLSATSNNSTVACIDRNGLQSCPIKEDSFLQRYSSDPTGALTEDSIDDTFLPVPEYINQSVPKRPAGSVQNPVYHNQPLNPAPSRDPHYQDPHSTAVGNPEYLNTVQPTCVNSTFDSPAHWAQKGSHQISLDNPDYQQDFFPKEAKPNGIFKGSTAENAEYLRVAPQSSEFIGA

For `C=CC(=O)Nc1cc(Nc2nccc(Nc3cc(Cl)c(F)cc3C(C)(C)O)n2)c(OC)cc1N1CC[C@@H](N(C)C)C1` [Form A, (R)-N-(5-((4-((5-chloro-4-fluoro-2-(2-hydroxypropan-2-yl)phenyl)amino)pyrimidin-2-yl)amino)-2-(3-(dimethylamino)pyrrolidin-1-yl)-4-methoxyphenyl)acrylamide], the “DVS (ΔW %, 80% RH)” value [1] was 0.63%, the IC50 (EGFR Wildtype) was 43.1 nM and the Solubility ([2]; FaSSIF, 0.5 h) was 170 µg/mL (≈ 0.291 mM). The Solubility ([2]; FaSSIF, 2 h) was 190 µg/mL (≈ 0.325 mM), the Solubility ([2]; FaSSIF, 24 h) was 260 µg/mL (≈ 0.445 mM) and the Solubility ([2]; FeSSIF, 0.5 h) was 4600 µg/mL (≈ 7.88 mM). The Solubility ([2]; FeSSIF, 2 h) was 6880 µg/mL (≈ 11.8 mM), the Solubility ([2]; FeSSIF, 24 h) was 11640 µg/mL (≈ 19.9 mM) and the Solubility ([2]; SGF, 0.5 h) was 23120 µg/mL (≈ 39.6 mM). It also gave a Solubility ([2]; SGF, 2 h) of 24350 µg/mL (≈ 41.7 mM), a Solubility ([2]; SGF, 24 h) of 24410 µg/mL (≈ 41.8 mM) and a Solubility ([2]; SIF, 0.5 h) of 29 µg/mL (≈ 0.0496 mM). For the same compound, the Solubility ([2]; SIF, 2 h) was 40 µg/mL (≈ 0.0685 mM), the Solubility ([2]; SIF, 24 h) was 40 µg/mL (≈ 0.0685 mM) and the GI50 (PC-9) was 4.76 nM. For the same compound, the Solubility ([3]; Acetonitrile) was “S < 2.14 mg/ml”, the Solubility ([3]; EtOH, organic solvent or mixture, EtOH, read-out: Solubility) was 13400 to 17800 µg/mL (≈ 22.9 to 30.5 mM) and the Solubility ([3]; Ethyl acetate) was “S < 2.16 mg/ml”. The Solubility ([3]; MTBE, organic solvent or mixture, MTBE, read-out: Solubility) was under 1820 µg/mL, the Solubility ([3]; MeOH, organic solvent or mixture, MeOH, read-out: Solubility) was 24800 to 49500 µg/mL (≈ 42.4 to 84.7 mM) and the Solubility ([3]; THF, organic solvent or mixture, THF, read-out: Solubility) was 17200 to 25800 µg/mL (≈ 29.4 to 44.1 mM). It also gave a Solubility ([3]; acetone, organic solvent or mixture, Acetone, read-out: Solubility) of 5120 to 5690 µg/mL (≈ 8.77 to 9.74 mM), a Solubility ([3]; isopropanol, organic solvent or mixture, Isopropanol, read-out: Solubility) of 4450 to 4940 µg/mL (≈ 7.62 to 8.46 mM) and a Solubility ([3]; water, read-out: Solubility) of under 2040 µg/mL. For the same compound, the Cmax ([4]; 25 mg/kg) was 199 ng/mL, the AUC(0-t) ([4]; 25 mg/kg) was 2130 ng·h/mL and the half-life ([4]; 25 mg/kg) was 4.4 h. It also gave a Tmax ([4]; 25 mg/kg) of 4 h, a Cmax ([4]; 75 mg/kg) of 506 ng/mL and an AUC(0-t) ([4]; 75 mg/kg) of 6870 ng·h/mL. The half-life ([4]; 75 mg/kg) was 6 h, the Tmax ([4]; 75 mg/kg) was 4 h and the GI50 (A431) was 42.2 nM. For the same compound, the IC50 (EGFR 19Del) was 2.13 nM, the GI50 (NCI-H1975) was 2.22 nM and the GI50 (3T3_YVMA) was 44.3 nM. For the same compound, the “Stability of pure form during drying process” value ([5]; 50° C., vacuum, at least 2 days) was “stable”, the “Form change during the drying process” value ([5]; mixture of Form A and Form B) was “converted into Form B” and the IC50 (EGFR L858R/T790M) was 2.1 nM. The “XRPD results of slurry in different water activity solvent” value ([6]; 0% water/acetone, water activity 0, 1 d) was “Form A”, the “XRPD results of slurry in different water activity solvent” value ([6]; 0% water/acetone, water activity 0, 3 d) was “Form A” and the “XRPD results of slurry in different water activity solvent” value ([6]; 0% water/acetone, water activity 0, 7 d) was “Form A + B”. For the same compound, the “XRPD results of slurry in different water activity solvent” value ([6]; 3% water/acetone, water activity 0.312, 3 d) was “Form A”, the “XRPD results of slurry in different water activity solvent” value ([6]; 3% water/acetone, water activity 0.312, 7 d) was “Form A + B” and the “XRPD results of slurry in different water activity solvent” value ([6]; 30% water/acetone, water activity 0.747, 1 d) was “Form A”. For the same compound, the “XRPD results of slurry in different water activity solvent” value ([6]; 30% water/acetone, water activity 0.747, 3 d) was “Form A”, the “XRPD results of slurry in different water activity solvent” value ([6]; 30% water/acetone, water activity 0.747, 7 d) was “Form A + B” and the “XRPD results of slurry in different water activity solvent” value ([6]; water, 7 d) was “Form A”. The IC50 (HER2 A775_G776insYVMA) was 3.84 nM, the IC50 (EGFR H773_V774insNPH) was 32.4 nM and the GI50 (Ba/F3_NPH) was 58.2 nM. For the same compound, the AUC0-24 h ([7]; Female (individual animals)) was 2.30 hr*μM/(mg/kg) and 1.80 hr*μM/(mg/kg) and the AUC0-24 h ([7]; Male (individual animals)) was 3.47 hr*μM/(mg/kg) and 5.47 hr*μM/(mg/kg).
